How the values were obtained:
[1] = biological target: T1, recombinantly expressed OR2AT4 (Homo sapiens, UniProt A6NND4); experiment: CRE dual luciferase assay in OR2AT4-transfected Hana3A cells; type: cell-based; conditions: for activation of the recombinant receptor in the CRE luciferase assay: 4-hour incubation, OR2AT4 expressed in Hana3A cells; for concentration required to produce a significant effect at the receptor: CRE luciferase assay
T1 construct: expressed in transfected cells; host or cells: Hana3A cells, transient transfection with pcDNA3-OR2AT4 by the calcium phosphate method
T1 sequence (A6NND4 1-320): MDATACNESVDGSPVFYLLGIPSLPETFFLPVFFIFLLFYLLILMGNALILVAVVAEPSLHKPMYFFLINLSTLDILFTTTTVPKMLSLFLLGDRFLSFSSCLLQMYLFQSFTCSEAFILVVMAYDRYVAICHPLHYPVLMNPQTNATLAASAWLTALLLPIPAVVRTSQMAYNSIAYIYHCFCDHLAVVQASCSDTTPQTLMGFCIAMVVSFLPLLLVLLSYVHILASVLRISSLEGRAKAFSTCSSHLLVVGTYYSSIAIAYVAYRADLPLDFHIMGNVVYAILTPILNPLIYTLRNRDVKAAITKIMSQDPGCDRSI
Excerpt: In order to verify calcium imaging results and investigate dose-dependent activation of OR2AT4, a further method of deorphanization based on a dual luciferase system was used. In this method, in addition to the OR, two luciferases were introduced into the Hana3A cells. When the expressed OR is activated by an odorant and cAMP is formed in the further course of the signal cascade, this initiates expression of firefly luciferase via CRE (cAMP response elements). The second luciferase, Renilla luciferase, serves as a control for transfection and vitality of the cells. By calculating the two luciferase values, the activation capacity of an OR by an odorant can be determined. In the CRE luciferase assay, the odorant remains on the cells for hours in order to ensure that the luciferase is expressed. Because of the longer incubation time of the odorants and the possibility of activating more receptors in a 96-well format, this method is more sensitive than calcium imaging and is well-suited for establishing dose-response relationships.
For Brahmanol, however, a higher concentration (≥75 μM) was required than for Sandalore® (≥25 μM) in order to produce a significant effect at the receptor (FIG. 3c).
Determination of receptive field of recombinantly expressed OR2AT4. […] As a control, untransfected Hana3A cells were simulated with Sandalore®. 100 μM of ATP was used at the end of each measurement as a positive control stimulus. […] The mean response rate including standard error of the cells is shown relative to the Ringer control. […] Isobornyl.: isobornyl cyclohexanol; S. öl: sandalwood oil. Kruskal-Wallis test with multiple comparison. *: p<0.05. […] Significance was determined between Hana3A cells transfected with OR2AT4-pcDNA3 and pcDNA3 without an insert. The dots show mean normalized luciferase-activity including standard error. Mann-Whitney U test; n=3 experiments. *: p<0.05; **: p<0.01; ***: p<0.001.

[2] = tested on: IL-6, IL-8, tumor necrosis factor; experiment: Quantitative real-time PCR of the other interleukins in HaCaT cells; type: cell-based, human; conditions: 6 or 24 hours, 500 μM
Description: (§1) In order to investigate interleukin secretion, quantitative real-time PCR was first carried out. For this purpose, RNA from HaCaT cells was used that had previously been stimulated for 6 or 24 hours with Sandalore®. Detection was carried out with specific primers of various interleukins (IL-1α, IL-1β, IL-6, IL-8) and tumor necrosis factor (TNF▪). […] In order to corroborate the results, an ELISA assay was carried out, in which the secreted interleukins in the supernatant of the cells can be detected by means of an immunological reaction. By means of the assay used, secretion of the interleukins (IL-1α, IL-1β, IL-2, IL-4, IL-6, IL-8, IL-10, IL-12, and IL-17α), TNFα, γ-interferon (IFNγ), and granulocyte macrophage colony-stimulating factor (GMCSF) was investigated.
(§2) Investigation of interleukin secretion and phosphorylation of Akt protein kinase after Sandalore® stimulation. A) Investigation of the regulation of interleukins in HaCaT cells by means of qRT-PCR after stimulation with Sandalore® (500 μM) for 6 h and 24 h. 0.1% DMSO was used as a control. GAPDH was used as a reference gene, and the relative expression between untreated and stimulated cells was determined. Mean values including standard error. n=3 experiments. […] The measured optical density of the treated cells at 450 nm was expressed relative to the background. […]

IL-1β = experiment: Quantitative real-time PCR of IL-1β in HaCaT cells; type: cell-based, human; conditions: after 24 hours, 500 μM
Description: as §1, §2

HaCaT cells = experiment: Agarose migration assay with HaCaT cells; type: cell-based, human; conditions: 500 μM versus 0.1% DMSO, five days
Description: For this reason, an agarose migration assay was conducted in order to determine whether the increased cell growth is accompanied by increased chemotactic behavior.
Effect of Sandalore® long-term stimulation on morphology, growth, and migration processes in keratinocytes. A) Phase contrast image and PI stains of HaCaT cells and primary keratinocytes after stimulation with Sandalore® (500 μM) or 0.1% DMSO (control) for five days. On positive PI staining, the cell nuclei are stained red. Scale: 100 μm. B) Evaluation of the proliferation assay carried out with the CyQuant Cell Proliferation Kit on HaCaT cells after 5-day stimulation with 500 μM of Sandalore® or 0.1% DMSO (control). For the RNA interference experiments, the cells were transfected with siRNA or scRNA on the day before Sandalore® stimulation. Shown is the mean cell count including standard error relative to untreated cells. Mann-Whitney U test; n=3 experiments. *: p<0.05; **: p<0.01. S: Sandalore. C) Agarose assay for determination of migration of HaCaT cells. Top: Transmitted light images of HaCaT cells that have migrated in the direction of Sandalore® (500 μM) or 0.1% DMSO. The growth margin of the cells was surrounded in black. Scale: 250 μm. Bottom: Evaluation of the proliferation assay. The longest path traversed by the cells and the overgrown area were measured and compared to the control (0.1% DMSO). Paired two-sided T test. […]

IL-8 = experiment: ELISA of secreted IL-8 in supernatant of HaCaT cells; type: cell-based, human; conditions: 24-hour stimulation, 500 μM
Description: as §1, §2

Compound | activation of the recombinant receptor in the CRE luciferase assay [1] | concentration required to produce a significant effect at the receptor [1] [µM] | expression rate of the other interleukins [2] | increase of expression of IL-1β relative to the control (0.1% DMSO) (IL-1β) | chemotactic migration of the HaCaT cells (HaCaT cells) | secretion of IL-8 relative to the control (0.1% DMSO) (IL-8)
CC1=CCC(CCC(C)CO)C1(C)C (centres unmarked) [Brahmanol®] | significant dose-dependent activation | ≥ 75 |  |  |  | 
CC1=CCC(CCC(C)C(C)O)C1(C)C (centres unmarked) [Sandalore®] | significant dose-dependent activation | ≥ 25 | no increase in the expression rate | approx. 1700% | significant chemotactic migration | not significantly higher than the control

From US10835500B2, “Medicament for accelerated wound healing” (Symrise AG, priority 2014, dated 2020)
